Results from PubChem BioAssay (NCI).
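1) Cells in 96-well plates. 2) Compound, 48 h, 5 concentrations. 3) Linear interpolation between surrounding doses. 4) Unreached endpoint = highest concentration. TGI: concentration producing complete growth inhibition.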

Columns and labels:
Experiment in all cases: NCI tumour cell line growth inhibition, 48 h
[1] = system: MOLT-4 leukemia
[2] = system: SNB-78 CNS
[3] = system: CCRF-CEM leukemia
[4] = system: NCI-H23 lung
[5] = system: SK-MEL-28 melanoma
[6] = system: SF-539 CNS
[7] = system: RXF-631 renal
[8] = system: HT29 colon
[9] = system: LXFL 529 NSCLC
[10] = system: SF-268 CNS
[11] = system: HCC-2998 colon
[12] = system: SNB-19 CNS
[13] = system: UO-31 renal
[14] = system: ACHN renal
[15] = system: M14 melanoma
[16] = system: DMS 273 small cell lung
[17] = system: NCI-H522 lung
[18] = system: SN12C renal
[19] = system: SK-MEL-2 melanoma
[20] = system: DLD-1 colon
[21] = system: XF 498 CNS
[22] = system: SR leukemia
[23] = system: SNB-75 CNS
[24] = system: SK-MEL-5 melanoma
[25] = system: SK-OV-3 ovarian
[26] = system: COLO 205 colon
[27] = system: KM12 colon
[28] = system: HOP-92 NSCLC
[29] = system: HL-60(TB) leukemia
[30] = system: IGROV1 ovarian
[31] = system: KM20L2 colon
[32] = system: 786-0 renal
[33] = system: OVCAR-8 ovarian
[34] = system: SF-295 CNS
[35] = system: SW-620 colon
[36] = system: DMS 114 small cell lung
[37] = system: OVCAR-3 ovarian
[38] = system: M19-MEL melanoma
[39] = system: MALME-3M melanoma
[40] = system: NCI-H226 lung
[41] = system: RPMI-8226 leukemia
[42] = system: HCT-15 colon
[43] = system: A549 NSCLC
[44] = system: OVCAR-5 ovarian
[45] = system: HOP-62 NSCLC
[46] = system: CAKI-1 renal
[47] = system: U251 CNS
[48] = system: TK-10 renal
[49] = system: UACC-62 melanoma
[50] = system: LOX IMVI melanoma
[51] = system: NCI-H460 lung
[52] = system: RXF 393 renal
[53] = system: K-562 leukemia
[54] = system: EKVX NSCLC
[55] = system: OVCAR-4 ovarian
[56] = system: UACC-257 melanoma

Measured: TGI

Cn1cc(C(=O)c2ccccc2)cc(C(=O)c2ccccc2)c1=O
> 100 µM: [1] | [2] | [3] | [4] | [5] | [6] | [7] | [8] | [9] | [10] | [11] | [12] | [13] | [14] | [15] | [16] | [17] | [18] | [19] | [20] | [21] | [22] | [23] | [24] | [25] | [26] | [27] | [28] | [29] | [30] | [31] | [32] | [33] | [34] | [35] | [36] | [37] | [38] | [39] | [40] | [41] | [42] | [43] | [44] | [45] | [46] | [47] | [48] | [49] | [50] | [51] | [52] | [53] | [54] | [55] | [56]
